Experiments:
[1] = target: T1, Avi-KRAS G12C (1-169) GppNHp/RAF1 RBD-3×FLAG (52-151) (Homo sapiens, UniProt P01116, G12C); assay: Raf1 RBD-KRAS G12C-GppNHp disruption (protein:protein interaction HTRF assay); type: biochemical
T1 construct: Avi-KRAS G12C (1-169) GppNHp/RAF1 RBD-3×FLAG (52-151)
Outline: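 HTRF measuring disruption of 50 nM Avi-KRAS G12C (1-169) loaded with GppNHp binding RAF1 RBD-3×FLAG (52-151), in pH 7.5 Tris buffer with 5 mM MgCl2, 0.1% BSA, 10% DMSO. KRAS preincubated with compound 1 h, then RBD 1 h, then detection reagents 1 h, all at room temperature. Compound titration 30-0.02 μM; activity expressed as percent of DMSO control.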

[2] = test system: pERK in NCI-H358 cells; assay: Cell-based pERK HTRF assay; settings: Homo sapiens, NCI-H358, 0.5 h, 30 min incubation, read-out: pERK in NCI-H358 cell inhibition IC50
Outline: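 Cells seeded at 4×10^4/well in RPMI with 10% FBS, then next day treated for 30 min with a 9-point, 3-fold series from 75 μM top concentration at 0.25% DMSO. Lysates were read for pERK by HTRF (d2/Eu cryptate antibodies) after 4–24 h at room temperature, emission at 615 nm.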

[3] = target: T2, GppNHp-loaded KRAS4b (amino acids 1-169) G12C/C118S protein (Homo sapiens, UniProt P01116, C118S/G12C); assay: Covalent cysteine 12 modification by MALDI-TOF MS, GppNHp-loaded KRAS G12C; type: binding; settings: 15 minutes reaction time point
T2 construct: KRAS4b (amino acids 1-169) G12C/C118S protein; made in house
Outline: (§1)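 KRAS4b 1-169 G12C/C118S loaded with GDP, GppNHp or GTP was used at 1 μM in 20 mM HEPES, 150 mM NaCl, 1 mM MgCl2, pH 7.3, and incubated with compound (5 mM DMSO stock) at room temperature in the dark. % modification at 15 min is adduct peak height over total protein peak heights by linear-mode MALDI-TOF.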

[4] = target: T3, GTP-loaded KRAS4b (amino acids 1-169) G12C/C118S protein (Homo sapiens, UniProt P01116, C118S/G12C); assay: Covalent cysteine 12 modification by MALDI-TOF MS, GTP-loaded KRAS G12C; type: binding; settings: 15 minutes reaction time point
T3 construct: KRAS4b (amino acids 1-169) G12C/C118S protein; made in house
Outline: as §1

[5] = target: T4, GDP-loaded KRAS4b (amino acids 1-169) G12C/C118S protein (Homo sapiens, UniProt P01116, C118S/G12C); assay: Covalent cysteine 12 modification by MALDI-TOF MS, GDP-loaded KRAS G12C; type: binding; settings: 15 minutes reaction time point
T4 construct: KRAS4b (amino acids 1-169) G12C/C118S protein; made in house
Outline: as §1

IC50 [1] | IC50 [2] | GppNHp-KRAS G12C percent of modification [3] | GTP-KRAS G12C percent of modification [4] | GDP-KRAS G12C percent of modification [5] | Compound
≤ 500 nM | 100 to 1000 nM | D (percent of modification <10%) | D (percent of modification <10%) | B (50≤percent of modification <70%) | C=CC(=O)N1CC[C@@H](Oc2nc(OC[C@@]34CCCN3C[C@H](F)C4)nc3c(F)c(-c4ccc(F)c5sc(N)c(C#N)c45)c(C(F)(F)F)cc23)[C@@H]1COC [Compound 127]
> 20000 nM | > 1000 nM | D (percent of modification <10%) | D (percent of modification <10%) | C (10%≤modification <50%) | C=CC(=O)N1CC[C@@H](Oc2nc(OC[C@@]34CCCN3C[C@H](F)C4)nc3cc(-c4ccc(F)c5sc(N)c(C#N)c45)c(C#N)cc23)[C@@H]1COC [Compound 128]
≤ 500 nM | 100 to 1000 nM | A (percent of modification ≥70%) | C (10%≤modification <50%) | B (50≤percent of modification <70%) | C=CC(=O)N1CC[C@@H](Oc2nc(OC[C@@]34CCCN3C[C@H](F)C4)nc3c(Cl)c(-c4ccc(F)c5sc(N)c(C#N)c45)ncc23)[C@@H]1COC [Compound 129]

The next lines start with the molecule.

Compound | IC50 [1] | IC50 [2] | GppNHp-KRAS G12C percent of modification [3] | GTP-KRAS G12C percent of modification [4] | GDP-KRAS G12C percent of modification [5]
C=CC(=O)N1CC[C@@H](Oc2nc(OC[C@@]34CCCN3C[C@H](F)C4)nc3cc(-c4ccc(F)c5sc(N)c(C#N)c45)c(F)cc23)[C@@H]1COC [Compound 122] | > 20000 nM | > 1000 nM | D (percent of modification <10%) | D (percent of modification <10%) | C (10%≤modification <50%)
C=CC(=O)N1CC[C@@H](Oc2nc(OC[C@@]34CCCN3C[C@H](F)C4)nc3c(F)c(-c4ccc(F)c5sc(N)c(C#N)c45)c(C(F)(F)F)cc23)[C@@H]1C [Compound 123] | ≤ 500 nM | ≤ 100 nM | C (10%≤modification <50%) | D (percent of modification <10%) | B (50≤percent of modification <70%)
C=CC(=O)N1CC[C@@H](Oc2nc(OC[C@@]34CCCN3C[C@H](F)C4)nc3c(Cl)c(-c4ccc(F)c5sc(N)c(C#N)c45)ncc23)[C@@H]1C [Compound 124] | 500 to 5000 nM | 100 to 1000 nM | D (percent of modification <10%) | D (percent of modification <10%) | B (50≤percent of modification <70%)
C=CC(=O)N1CC[C@@H](Oc2nc(OC[C@@]34CCCN3C[C@H](F)C4)nc3c(F)c(-c4ccc(F)c5sc(N)c(C#N)c45)ccc23)[C@@H]1COC [Compound 125] | > 20000 nM | > 1000 nM | D (percent of modification <10%) | D (percent of modification <10%) | C (10%≤modification <50%)
C=CC(=O)N1CC[C@@H](Oc2nc(OC[C@@]34CCCN3C[C@H](F)C4)nc3c(F)c(-c4ccc(F)c5sc(N)c(C#N)c45)c(Cl)cc23)[C@@H]1COC [Compound 126] | 500 to 5000 nM | 100 to 1000 nM | D (percent of modification <10%) | D (percent of modification <10%) | A (percent of modification ≥70%)

From patent US20250188085A1, “COMPOSITIONS AND METHODS FOR INHIBITION OF RAS” (THERAS, INC., priority 2022, published 2025)
